From patent US8299077B2 (Roche Palo Alto LLC, priority 2009, dated 2012)

Test system: B cell receptor-mediated activation of B cells in human blood (CD69 expression)
Test: Inhibition of B cell activation in whole blood measured by CD69 expression
Type: cell-based
Settings: anti-IgM stimulation, 20 h, 50% decrease of CD69-positive cells that are also CD20-positive
Procedure: Inhibition of B Cell Activation in Whole Blood Measured by CD69 Expression
A procedure to test the ability of Btk inhibitors to suppress B cell receptor-mediated activation of B cells in human blood is as follows:
Human whole blood (HWB) is obtained from healthy volunteers, with the following restrictions: 24 hr drug-free, non-smokers. Blood is collected by venipuncture into Vacutainer tubes anticoagulated with sodium heparin. Test compounds are diluted to ten times the desired starting drug concentration in PBS (20×), followed by three-fold serial dilutions in 10% DMSO in PBS to produce a nine point dose-response curve. 5.5 μl of each compound dilution is added in duplicate to a 2 ml 96-well V bottom plate (Analytical Sales and Services, #59623-23); 5.5 μl of 10% DMSO in PBS is added to control and no-stimulus wells. HWB (100 μl) is added to each well, and after mixing the plates are incubated at 37 C, 5% CO2, 100% humidity for 30 minutes. Goat F(ab′)2 anti-human IgM (Southern Biotech, #2022-14) (10 μl of a 500 μg/ml solution, 50 μg/ml final concentration) is added to each well (except the no-stimulus wells) with mixing and the plates are incubated for an additional 20 hours.
At the end of the 20 hour incubation, samples are incubated with florescent-probe-labeled anti-bodies (15 μl PE Mouse anti-Human CD20, BD Pharmingen, #555623, and/or 20 ul APC Mouse anti-Human CD69, BD Pharmingen #555533) for 30 minutes, at 37 C, 5% CO2, 100% humidity. Included are induced control, unstained and single stains for compensation adjustments and initial voltage settings. Samples are then lysed with 1 ml of 1× Pharmingen Lyse Buffer (BD Pharmingen #555899), and plates are centrifuged at 1800 rpm for 5 minutes. Supernatants are removed via suction and the remaining pellets are lysed again with another 1 ml of 1× Pharmingen Lyse Buffer, and plates are spun down as before. Supernatants are aspirated and remaining pellets are washed in FACs buffer (PBS+1% FBS). After a final spin, the supernantants are removed and pellets are resuspended in 180 μl of FACs buffer. Samples are transferred to a 96 well plate suitable to be run on the HTS 96 well system on the BD LSR II flow cytometer.
Using appropriate excitation and emission wavelengths for the fluorophores used, data are acquired and percent positive cell values are obtained using Cell Quest Software. Results are initially analyzed by FACS analysis software (Flow Jo). […] The IC50 values are calculated using XLfit software version 3, equation 201.

Compound	IC50
COCCNCc1ccc(Nc2cc(-c3cccc(-n4ncc5cc(C(C)(C)C)cc(F)c5c4=O)c3CO)cn(C)c2=O)nc1 [Example I-39, 6-tert-Butyl-8-fluoro-2-[2-hydroxymethyl-3-(5-{5-[(2-methoxy-ethylamino)-methyl]-pyridin-2-ylamino}-1-methyl-6-oxo-1,6-dihydro-pyridin-3-yl)-phenyl]-2H-phthalazin-1-one]	8 nM
Cn1cc(-c2cccc(-n3ncc4cc(C(C)(C)C)cc(F)c4c3=O)c2CO)cc(NC2=NCCO2)c1=O [Example I-40, 6-tert-Butyl-2-{3-[5-(4,5-dihydro-oxazol-2-ylamino)-1-methyl-6-oxo-1,6-dihydro-pyridin-3-yl]-2-hydroxymethyl-phenyl}-8-fluoro-2H-phthalazin-1-one]	824 nM
Cn1cc(-c2cccc(-n3ncc4cc(C(C)(C)C)cc(F)c4c3=O)c2CO)cc(Nc2ccc3c(n2)CCNC3)c1=O [Example I-41, 6-tert-Butyl-8-fluoro-2-{2-hydroxymethyl-3-[1-methyl-6-oxo-5-(5,6,7,8-tetrahydro-[1,6]naphthyridin-2-ylamino)-1,6-dihydro-pyridin-3-yl]-phenyl}-2H-phthalazin-1-one]	33 nM
CC(C)NCc1ccc(Nc2cc(-c3cccc(-n4ncc5cc(C(C)(C)C)cc(F)c5c4=O)c3CO)cn(C)c2=O)nc1 [Example I-43, 6-tert-Butyl-8-fluoro-2-(2-hydroxymethyl-3-{5-[5-(isopropylamino-methyl)-pyridin-2-ylamino]-1-methyl-6-oxo-1,6-dihydro-pyridin-3-yl}-phenyl)-2H-phthalazin-1-one]	15 nM
Cn1cc(-c2cccc(-n3ncc4cc(C(C)(C)C)cc(F)c4c3=O)c2CO)cc(NC2=NCCCO2)c1=O [Example I-44, 6-tert-Butyl-2-{3-[5-(5,6-dihydro-4H-[1,3]oxazin-2-ylamino)-1-methyl-6-oxo-1,6-dihydro-pyridin-3-yl]-2-hydroxymethyl-phenyl}-8-fluoro-2H-phthalazin-1-one]	1730 nM
Cn1cc(-c2cccc(-n3ncc4cc(C(C)(C)C)cc(F)c4c3=O)c2CO)cc(Nc2ccc(N3CC[N+](C)([O-])CC3)cn2)c1=O [Example I-45, 6-tert-Butyl-8-fluoro-2-(2-hydroxymethyl-3-{1-methyl-5-[5-(4-methyl-4-oxy-piperazin-1-yl)-pyridin-2-ylamino]-6-oxo-1,6-dihydro-pyridin-3-yl}-phenyl)-2H-phthalazin-1-one]	2260 nM
CC1CCOC(Nc2cc(-c3cccc(-n4ncc5cc(C(C)(C)C)cc(F)c5c4=O)c3CO)cn(C)c2=O)=N1 (stereo not drawn) [Example I-46, 6-tert-Butyl-8-fluoro-2-{2-hydroxymethyl-3-[1-methyl-5-(4-methyl-5,6-dihydro-4H-[1,3]oxazin-2-ylamino)-6-oxo-1,6-dihydro-pyridin-3-yl]-phenyl}-2H-phthalazin-1-one]	4220 nM
CCNC(C)(C)c1ccc(Nc2cc(-c3cccc(-n4ncc5cc(C(C)(C)C)cc(F)c5c4=O)c3CO)cn(C)c2=O)nc1 [Example I-47, 6-tert-Butyl-2-(3-{5-[5-(1-ethylamino-1-methyl-ethyl)-pyridin-2-ylamino]-1-methyl-6-oxo-1,6-dihydro-pyridin-3-yl}-2-hydroxymethyl-phenyl)-8-fluoro-2H-phthalazin-1-one]	6 nM
CC(=O)NC(C)(C)c1ccc(Nc2cc(-c3cccc(-n4ncc5cc(C(C)(C)C)cc(F)c5c4=O)c3CO)cn(C)c2=O)nc1 [Example I-48, N-[1-(6-{5-[3-(6-tert-Butyl-8-fluoro-1-oxo-1H-phthalazin-2-yl)-2-hydroxymethyl-phenyl]-1-methyl-2-oxo-1,2-dihydro-pyridin-3-ylamino}-pyridin-3-yl)-1-methyl-ethyl]-acetamide]	47 nM
CC1CCN=C(Nc2cc(-c3cccc(-n4ncc5cc(C(C)(C)C)cc(F)c5c4=O)c3CO)cn(C)c2=O)O1 (stereo not drawn) [Example I-49, 6-tert-Butyl-8-fluoro-2-{2-hydroxymethyl-3-[1-methyl-5-(6-methyl-5,6-dihydro-4H-[1,3]oxazin-2-ylamino)-6-oxo-1,6-dihydro-pyridin-3-yl]-phenyl}-2H-phthalazin-1-one]	3130 nM
Cn1cc(-c2cccc(-n3ccc4cc(C5CC5)cc(F)c4c3=O)c2CO)cc(Nc2ccc(C(=O)N3CCOCC3)cn2)c1=O [Example I-51, 6-Cyclopropyl-8-fluoro-2-(2-hydroxymethyl-3-{1-methyl-5-[5-(morpholine-4-carbonyl)-pyridin-2-ylamino]-6-oxo-1,6-dihydro-pyridin-3-yl}-phenyl)-2H-isoquinolin-1-one]	23 nM
Cn1cc(-c2cccc(-n3ccc4cc(C5CC5)cc(F)c4c3=O)c2CO)cc(Nc2ccc(N3CCNCC3)cn2)c1=O [Example I-52, 6-Cyclopropyl-8-fluoro-2-{2-hydroxymethyl-3-[1-methyl-6-oxo-5-(5-piperazin-1-yl-pyridin-2-ylamino)-1,6-dihydro-pyridin-3-yl]-phenyl}-2H-isoquinolin-1-one]	57 nM
Cn1cc(-c2cccc(-n3ccc4cc(C5CC5)cc(Cl)c4c3=O)c2CO)cc(Nc2ccc(C(=O)N3CCOCC3)cn2)c1=O [Example I-53, 8-Chloro-6-cyclopropyl-2-(2-hydroxymethyl-3-{1-methyl-5-[5-(morpholine-4-carbonyl)-pyridin-2-ylamino]-6-oxo-1,6-dihydro-pyridin-3-yl}-phenyl)-2H-isoquinolin-1-one]	609 nM
CN1CCN(c2ccc(Nc3cc(-c4cccc(-n5ccc6cc(C7CC7)cc(F)c6c5=O)c4CO)cn(C)c3=O)nc2)CC1 [Example I-54, 6-Cyclopropyl-8-fluoro-2-(2-hydroxymethyl-3-{1-methyl-5-[5-(4-methyl-piperazin-1-yl)-pyridin-2-ylamino]-6-oxo-1,6-dihydro-pyridin-3-yl}-phenyl)-2H-isoquinolin-1-one]	14 nM

Further lines, results first:

IC50	Compound
258 nM	Cn1cc(-c2cccc(-n3ncc4cc(C(C)(C)C)cc(F)c4c3=O)c2CO)cc(Nc2ccc(C(=O)O)cn2)c1=O [Example I-34, 6-{5-[3-(6-tert-Butyl-8-fluoro-1-oxo-1H-phthalazin-2-yl)-2-hydroxymethyl-phenyl]-1-methyl-2-oxo-1,2-dihydro-pyridin-3-ylamino}-nicotinic acid]
28 nM	Cn1cc(-c2cccc(-n3ncc4cc(C(C)(C)C)cc(F)c4c3=O)c2CO)cc(Nc2ccc(C(C)(C)N)cn2)c1=O [Example I-35, 2-(3-{5-[5-(1-Amino-1-methyl-ethyl)-pyridin-2-ylamino]-1-methyl-6-oxo-1,6-dihydro-pyridin-3-yl}-2-hydroxymethyl-phenyl)-6-tert-butyl-8-fluoro-2H-phthalazin-1-one]
59 nM	CC(O)c1ccc(Nc2cc(-c3cccc(-n4ncc5cc(C(C)(C)C)cc(F)c5c4=O)c3CO)cn(C)c2=O)nc1 (stereo not drawn) [Example I-36, 6-tert-Butyl-8-fluoro-2-(3-{5-[5-(1-hydroxy-ethyl)-pyridin-2-ylamino]-1-methyl-6-oxo-1,6-dihydro-pyridin-3-yl}-2-hydroxymethyl-phenyl)-2H-phthalazin-1-one]
219 nM	CCn1ccc(Nc2cc(-c3cccc(-n4ncc5cc(C(C)(C)C)cc(F)c5c4=O)c3CO)cn(C)c2=O)nc1=O [Example I-37, 6-tert-Butyl-2-{3-[5-(1-ethyl-2-oxo-1,2-dihydro-pyrimidin-4-ylamino)-1-methyl-6-oxo-1,6-dihydro-pyridin-3-yl]-2-hydroxymethyl-phenyl}-8-fluoro-2H-phthalazin-1-one]
67 nM	CC(C)n1ccc(Nc2cc(-c3cccc(-n4ncc5cc(C(C)(C)C)cc(F)c5c4=O)c3CO)cn(C)c2=O)nc1=O [Example I-38, 6-tert-Butyl-8-fluoro-2-{2-hydroxymethyl-3-[5-(1-isopropyl-2-oxo-1,2-dihydro-pyrimidin-4-ylamino)-1-methyl-6-oxo-1,6-dihydro-pyridin-3-yl]-phenyl}-2H-phthalazin-1-one]
6 nM	CCNCc1ccc(Nc2cc(-c3cccc(-n4ncc5cc(C(C)(C)C)cc(F)c5c4=O)c3CO)cn(C)c2=O)nc1 [Example I-42, 6-tert-Butyl-2-{3-[5-(5-ethylaminomethyl-pyridin-2-ylamino)-1-methyl-6-oxo-1,6-dihydro-pyridin-3-yl]-2-hydroxymethyl-phenyl}-8-fluoro-2H-phthalazin-1-one]
44 nM	Cn1cc(-c2cccc(-n3ncc4cc(C(C)(C)C)cc(F)c4c3=O)c2CO)cc(Nc2ccn(C(C)(C)C)c(=O)n2)c1=O [Example I-50, 6-tert-Butyl-2-{3-[5-(1-tert-butyl-2-oxo-1,2-dihydro-pyrimidin-4-ylamino)-1-methyl-6-oxo-1,6-dihydro-pyridin-3-yl]-2-hydroxymethyl-phenyl}-8-fluoro-2H-phthalazin-1-one]
